According to patent US7495100B2, “Synthesis of indenoisoquinolines” (Purdue Research Foundation, priority 2004, dated 2009):
Read-outs that look alike come from different tables or passages of the source.

Assays:
topoisomerase I (top1) = biological target: T1, topoisomerase I (top1) (Homo sapiens, UniProt P11387); test: topoisomerase I-mediated DNA cleavage; format: biochemical; parameters: key: +: weak activity; ++: similar activity as the parent compound 25; +++: greater activity than the parent compound 25; ++++: similar activity as 1 μM camptothecin; conditions: tested at concentrations ranging up to 10 μM; semi-quantitative
T1 sequence (P11387 1-765): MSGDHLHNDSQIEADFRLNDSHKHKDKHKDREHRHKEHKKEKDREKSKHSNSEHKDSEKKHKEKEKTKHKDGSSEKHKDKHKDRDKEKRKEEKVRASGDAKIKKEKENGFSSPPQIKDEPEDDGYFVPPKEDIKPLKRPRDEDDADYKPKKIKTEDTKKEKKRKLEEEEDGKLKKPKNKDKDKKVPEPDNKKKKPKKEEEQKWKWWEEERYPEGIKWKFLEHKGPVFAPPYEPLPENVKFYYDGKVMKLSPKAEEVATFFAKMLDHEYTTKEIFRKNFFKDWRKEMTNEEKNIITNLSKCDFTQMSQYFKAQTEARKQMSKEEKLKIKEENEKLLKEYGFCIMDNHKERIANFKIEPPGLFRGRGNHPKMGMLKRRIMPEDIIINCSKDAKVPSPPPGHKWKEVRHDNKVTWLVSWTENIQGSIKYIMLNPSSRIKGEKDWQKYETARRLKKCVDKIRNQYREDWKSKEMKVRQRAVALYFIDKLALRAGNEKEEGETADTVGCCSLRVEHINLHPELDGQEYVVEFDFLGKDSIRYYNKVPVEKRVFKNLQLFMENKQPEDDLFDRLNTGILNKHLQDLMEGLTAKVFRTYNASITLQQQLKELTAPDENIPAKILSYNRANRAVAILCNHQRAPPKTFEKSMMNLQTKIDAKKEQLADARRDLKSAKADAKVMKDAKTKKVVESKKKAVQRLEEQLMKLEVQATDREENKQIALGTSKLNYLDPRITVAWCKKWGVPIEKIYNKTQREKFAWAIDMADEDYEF
Method: (§1) The indenoisoquinolines described herein were examined for antiproliferative activity against the human cancer cell lines in the National Cancer Institute screen, in which the activity of each compound was evaluated with approximately 55 different cancer cell lines of diverse tumor origins. The MGM is based on a calculation of the average GI50 for all of the cell lines tested (approximately 55) in which GI50 values below and above the test range (10^−8 to 10^−4 molar) are taken as the minimum (10^−8 molar) and maximum (10^−4 molar) drug concentrations used in the screening test. The relative potencies of the compounds described herein in the production of topoisomerase I-mediated DNA cleavage are also listed in Table 1.

DU-145 = test: NCI screen antiproliferative activity, prostate DU-145; format: cell-based, human; conditions: concentration corresponding to 50% growth inhibition, read-out: cytotoxicity GI50 prostate DU-145
Method: as §1

SF-268 = test: NCI screen antiproliferative activity, CNS SF-268; format: cell-based, human; conditions: concentration corresponding to 50% growth inhibition, read-out: cytotoxicity GI50 CNS SF-268
Method: as §1

UACC-62 = test: NCI screen antiproliferative activity, melanoma UACC-62; format: cell-based, human; conditions: concentration corresponding to 50% growth inhibition, read-out: cytotoxicity GI50 melanoma UACC-62
Method: as §1

OVCAR-3 = test: NCI screen antiproliferative activity, ovarian OVCAR-3; format: cell-based, human; conditions: concentration corresponding to 50% growth inhibition, read-out: cytotoxicity GI50 ovarian OVCAR-3
Method: as §1

MDA-MB-435 = test: NCI screen antiproliferative activity, breast MDA-MB-435; format: cell-based, human; conditions: concentration corresponding to 50% growth inhibition, read-out: cytotoxicity GI50 breast MDA-MB-435
Method: as §1

SN12C = test: NCI screen antiproliferative activity, renal SN12C; format: cell-based, human; conditions: concentration corresponding to 50% growth inhibition, read-out: cytotoxicity GI50 renal SN12C
Method: as §1

[1] = test system: human cancer cell lines in the National Cancer Institute screen; test: NCI screen mean graph midpoint over approximately 55 cancer cell lines; format: cell-based; conditions: for MGM (mean graph midpoint for growth inhibition): average GI50 of all human cancer cell lines tested (approximately 55), test range 10^-8 to 10^-4 molar
Method: as §1

HCT-116 = test: NCI screen antiproliferative activity, colon HCT-116; format: cell-based, human; conditions: concentration corresponding to 50% growth inhibition, read-out: cytotoxicity GI50 colon HCT-116
Method: as §1

HOP-62 = test: NCI screen antiproliferative activity, lung HOP-62; format: cell-based, human; conditions: concentration corresponding to 50% growth inhibition, read-out: cytotoxicity GI50 lung HOP-62
Method: as §1

[2] = average GI50 of all cell lines tested

Top 1 Cleavage (topoisomerase I (top1)) | Compound | GI50 (DU-145) [nM] | GI50 (SF-268) [nM] | GI50 (UACC-62) [nM] | GI50 (OVCAR-3) [nM] | GI50 (MDA-MB-435) [nM] | GI50 (SN12C) [nM] | MGM (mean graph midpoint for growth inhibition) [1] [µM] | GI50 (HCT-116) [nM] | GI50 (HOP-62) [nM] | activity (MGM) [1, 2] [nm] | GI50 (DU-145; Homo sapiens, DU-145) [nM] | GI50 (SF-268; Homo sapiens, SF-268) [nM] | GI50 (UACC-62; Homo sapiens, UACC-62) [nM] | GI50 (OVCAR-3; Homo sapiens, OVCAR-3) [nM] | GI50 (MDA-MB-435; Homo sapiens, MDA-MB-435) [nM] | GI50 (SN12C; Homo sapiens, SN12C) [nM] | GI50 (HOP-62; Homo sapiens, HOP-62) [nM] | GI50 (HCT-116; Homo sapiens, HCT-116) [nM] | cytotoxicity (MGM) as stated in text [1, 2] [nM]
0 | O=C1c2ccccc2-c2c1c1ccc([N+](=O)[O-])cc1c(=O)n2CCCBr [Compound 20] | > 100000 | > 100000 | > 100000 | > 100000 | > 100000 | > 100000 | 40 | 3450 | – | – | – | – | – | – | – | – | – | – | –
– | O=C1c2ccccc2-c2c1c1ccc([N+](=O)[O-])cc1c(=O)n2CCCCl [Compound 22] | – | – | – | – | – | – | 18.2 | – | – | – | 40700 | 23400 | 20400 | 4900 | 31600 | 26900 | 43700 | 3630 | –
+ | O=C1c2cc3c(cc2C2C1c1ccc([N+](=O)[O-])cc1C(=O)N2CCCCl)OCO3 (racemic) [Compound 13] | < 10 | < 10 | < 10 | < 10 | < 10 | < 10 | 0.018 ± 0.001 | < 10 | < 10 | 18 | – | – | – | – | – | – | – | – | –
– | Cl.NCCCn1c2c(c3ccc([N+](=O)[O-])cc3c1=O)C(=O)c1ccccc1-2 [Compound 24] | 148 | 302 | 372 | – | – | 102 | 0.245 | 85 | 275 | – | – | – | – | – | – | – | – | – | –
+++ | CN1C(=O)c2cc([N+](=O)[O-])ccc2C2C(=O)c3cc4c(cc3C21)OCO4 (racemic) [Compound 14] | 50 | 24 | 26 | 30 | 107 | 33 | 0.105 ± 0.007 | 14 | 158 | – | – | – | – | – | – | – | – | – | –
+++ | O=C1c2cc3c(cc2-c2c1c1ccc([N+](=O)[O-])cc1c(=O)n2CCCCl)OCO3 [Compound 15] | 98 | 148 | 229 | 9120 | 1820 | 132 | 0.832 | 2400 | 410 | – | – | – | – | – | – | – | – | – | –
– | [N-]=[N+]=NCCCn1c2c(c3ccc([N+](=O)[O-])cc3c1=O)C(=O)c1ccccc1-2 [Compound 23] | – | – | – | – | – | – | 13.5 | – | – | – | > 100000 | 79400 | 44700 | – | > 100000 | 72400 | > 100000 | 8130 | –

Compound | Top 1 Cleavage (topoisomerase I (top1)) | GI50 (DU-145) [nM] | GI50 (SF-268) [nM] | GI50 (UACC-62) [nM] | GI50 (OVCAR-3) [nM] | GI50 (MDA-MB-435) [nM] | GI50 (SN12C) [nM] | MGM (mean graph midpoint for growth inhibition) [1] [µM] | GI50 (HCT-116) [nM] | GI50 (HOP-62) [nM] | activity (MGM) [1, 2] [nm] | GI50 (DU-145; Homo sapiens, DU-145) [nM] | GI50 (SF-268; Homo sapiens, SF-268) [nM] | GI50 (UACC-62; Homo sapiens, UACC-62) [nM] | GI50 (OVCAR-3; Homo sapiens, OVCAR-3) [nM] | GI50 (MDA-MB-435; Homo sapiens, MDA-MB-435) [nM] | GI50 (SN12C; Homo sapiens, SN12C) [nM] | GI50 (HOP-62; Homo sapiens, HOP-62) [nM] | GI50 (HCT-116; Homo sapiens, HCT-116) [nM] | cytotoxicity (MGM) as stated in text [1, 2] [nM]
O=C1c2cc3c(cc2C2C1c1ccc([N+](=O)[O-])cc1C(=O)N2CCCBr)OCO3 (racemic) [Compound 12] | + | < 10 | < 10 | < 10 | < 10 | < 10 | < 10 | 0.016 ± 0.003 | < 10 | < 10 | 16 | – | – | – | – | – | – | – | – | –
[N-]=[N+]=NCCCn1c2c(c3ccc([N+](=O)[O-])cc3c1=O)C(=O)c1cc3c(cc1-2)OCO3 [Compound 16] | ++++ | < 10 | < 10 | < 10 | < 10 | < 10 | < 10 | 0.098 ± 0.06 | < 10 | < 10 | – | – | – | – | – | – | – | – | – | 98
Cl.Nc1ccc2c3c(n(CCCCl)c(=O)c2c1)-c1cc2c(cc1C3=O)OCO2 [Compound 18] | 0 | – | > 100000 | > 100000 | > 100000 | > 100000 | > 100000 | 25 | – | – | – | – | – | – | – | – | – | – | – | –
